According to the supplement of paper PMC10307832:

What was measured:
Test in all cases: relative viability (nuclei count vs DMSO), 5 days (fraction); higher = more cells survive
XMD8-85 + Pictilisib = compound: CN1CCN(CC1)C2=CC(=C(C=C2)NC3=NC=C4C(=N3)N(C5=CC=CC=C5C(=O)N4C)C)OC [XMD8-85] + CS(=O)(=O)N1CCN(Cc2cc3nc(-c4cccc5[nH]ncc45)nc(N4CCOCC4)c3s2)CC1 [Pictilisib] (partner 1 µM)
Method in brief: (§1)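 Lung cancer cell lines in 1536-well plates got either a single drug or a fixed anchor-drug dose together with five library-drug doses (not always all listed) in √10 steps, by pin tool, on the day after seeding. Nuclei were counted after 5 days, and relative viability is the treated-to-vehicle ratio of nuclei counts. Values are medians of duplicate plates.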

XMD8-85 + Tozasertib = compound: CN1CCN(CC1)C2=CC(=C(C=C2)NC3=NC=C4C(=N3)N(C5=CC=CC=C5C(=O)N4C)C)OC [XMD8-85] + Cc1cc(Nc2cc(N3CCN(C)CC3)nc(Sc3ccc(NC(=O)C4CC4)cc3)n2)n[nH]1 [Tozasertib] (partner 0.1 µM)
Method in brief: as §1

XMD8-85 + Linsitinib = compound: CN1CCN(CC1)C2=CC(=C(C=C2)NC3=NC=C4C(=N3)N(C5=CC=CC=C5C(=O)N4C)C)OC [XMD8-85] + C[C@]1(O)C[C@@H](c2nc(-c3ccc4ccc(-c5ccccc5)nc4c3)c3c(N)nccn32)C1 [Linsitinib] (partner 1 µM)
Method in brief: as §1

XMD8-85 + OSI-027 = compound: CN1CCN(CC1)C2=CC(=C(C=C2)NC3=NC=C4C(=N3)N(C5=CC=CC=C5C(=O)N4C)C)OC [XMD8-85] + COc1cccc2cc(-c3nc([C@H]4CC[C@H](C(=O)O)CC4)n4ncnc(N)c34)[nH]c12 [OSI-027] (partner 0.5 µM)
Method in brief: as §1

Cell Line	relative viability (XMD8-85 + Pictilisib; first compound 0.08 µM)	relative viability (XMD8-85 + Pictilisib; first compound 0.253 µM)	relative viability (XMD8-85 + Pictilisib; first compound 0.8 µM)	relative viability (XMD8-85 + Pictilisib; first compound 2.53 µM)	relative viability (XMD8-85 + Pictilisib; first compound 8 µM)	relative viability (XMD8-85 + Tozasertib; first compound 0.08 µM)	relative viability (XMD8-85 + Tozasertib; first compound 0.253 µM)	relative viability (XMD8-85 + Tozasertib; first compound 0.8 µM)	relative viability (XMD8-85 + Tozasertib; first compound 2.53 µM)	relative viability (XMD8-85 + Tozasertib; first compound 8 µM)	relative viability (XMD8-85 + Linsitinib; first compound 0.08 µM)	relative viability (XMD8-85 + Linsitinib; first compound 0.253 µM)	relative viability (XMD8-85 + Linsitinib; first compound 0.8 µM)	relative viability (XMD8-85 + Linsitinib; first compound 2.53 µM)	relative viability (XMD8-85 + Linsitinib; first compound 8 µM)	relative viability (XMD8-85 + OSI-027; first compound 0.08 µM)	relative viability (XMD8-85 + OSI-027; first compound 0.8 µM)	relative viability (XMD8-85 + OSI-027; first compound 2.53 µM)	relative viability (XMD8-85 + OSI-027; first compound 8 µM)	relative viability (XMD8-85 + OSI-027; first compound 0.253 µM)
COR-L23	0.8	0.717	1.01	0.798	0.577	0.222	0.216	0.197	0.163	0.144	0.972	0.989	1.02	0.99	0.497	0.592	0.91	0.733	0.597	
NCI-H460	0.341	0.356	0.405	0.333	0.156	0.445	0.339	0.445	0.329	0.0548	0.594	0.904	0.868	0.821	0.262	0.557	0.901	0.731	0.239	0.626
HCC-366	0.137	0.239	0.146	0.168	0.304	0.138	0.128	0.0974	0.0608	0.0744	0.69	0.687	0.764		0.352	0.932	1.08	0.917	0.794	1.15
NCI-H1755	0.369	0.426	0.448	0.552	0.357	0.627	0.571	0.589	0.584	0.436	1.06	1.01	1	1.09	0.907	0.677	0.645		0.531	0.787
NCI-H2087	0.924	0.723	0.961	0.83	0.542	0.265	0.223	0.238	0.245	0.177	0.929	1.01	1.09	1.06	0.7	0.612	0.582	0.686	0.552	0.586
CAL-12T	0.396	0.541	0.393	0.395	0.321	0.287	0.348	0.296	0.259	0.214	0.677	0.656	0.802	0.808	0.595	0.556	0.693	0.409	0.235	0.735
NCI-H1355	0.458	0.41	0.485	0.449	0.33	0.473	0.467	0.525	0.376	0.314	0.807	0.913	0.828	0.715	0.829	0.385	0.403	0.448	0.309	0.43
LK-2	0.531	0.439	0.574	0.361	0.458		0.156	0.188	0.158	0.181	0.524	0.52	0.498	0.365	0.445	0.167	0.185	0.192	0.162	0.196
NCI-H2023	0.199	0.274	0.259	0.265	0.178	0.266	0.355	0.432	0.335	0.163	0.564	0.811	0.76	0.657	0.34	0.314	0.402	0.37	0.248	0.434
PC-14	0.618	0.521	0.661	0.681	0.462	0.556	0.529	0.541	0.463	0.397	1.06	0.849	0.914	0.843	0.86	0.835	0.776		0.373	0.971
LXF-289	0.682		0.82	0.874	0.781	0.194	0.216	0.171	0.142	0.166	0.916	0.927	0.964	1.01	0.883	0.758	0.852	0.936	0.579	0.915
NCI-H2009	0.753	0.722	0.892	0.653	0.364	0.727	0.696	0.703	0.416	0.308	1.17	1.12	1.21	1.23	0.636	0.589	0.638	0.508	0.324	0.704
SK-LU-1	0.397		0.569	0.6	0.522	0.278	0.328	0.276	0.294	0.185	0.947	1.11	1.12	1.07	0.91	0.287		0.365	0.297	0.383
NCI-H23	0.486	0.508	0.524	0.523	0.426	0.492	0.369	0.34	0.272	0.209	0.545	0.611	0.547	0.513		0.589	0.614	0.654	0.409	0.692
NCI-H2405	0.388	0.528	0.402	0.373	0.303	0.705	0.749	0.742	0.694	0.485		0.912	0.951	0.735	0.739	0.6	0.604	0.598	0.631	0.645
RERF-LC-KJ	0.504	0.444	0.524	0.603	0.412	0.552	0.465	0.473	0.409	0.295	0.826	0.903	0.881	0.804	0.883	0.684	0.645	0.577	0.461	0.504
